Source: ChEMBL document CHEMBL1126334, “Thromboxane receptor antagonist BMS-180291: A new pre-clinical lead” (Bioorg Med Chem Lett, 1992)
The source made the active and inactive calls. The rule behind the calls is not given here.

Assays:
[1] = Oral bioavailability in African green monkeys; 20-25; format: ADME, organism-based; details: chlorocebus aethiops, in vivo, read-out: Bioavailabiility
Bos taurus = species: Bos taurus; test: Compound was tested at 1 nM for the inhibition of […] in bovine seminal vesicle microsomes; NI=No inhibition; format: functional
Homo sapiens = species: Homo sapiens; test: Compound was tested at 1 mM for the inhibition of ADP-induced (20 uM) platelet aggregation in human platelet-rich plasma; NI=No inhibition; format: functional, organism-based
Monkey = test: Oral dose of compound required to inhibit the U46,619-induced platelet aggregation in ex vivo African green monkeys; format: functional, Cercopithecidae
Mus musculus = test: Time duration taken by the compound (0.2 mg/kg, po) to provide extended protection from U46,619 (2 mg/kg, iv) induced death; format: functional
Rattus norvegicus = species: Rattus norvegicus; test: Compound was tested for the inhibition of U46,619-induced contractions in rat aortas; format: functional; details: Aorta
[2] = biological target: T1, Thromboxane-A synthase (Homo sapiens) (UniProt P24557); test: Compound was tested for activity against Thromboxane A2 synthase in human PRP; NI=No inhibition
T1 sequence (whole entry): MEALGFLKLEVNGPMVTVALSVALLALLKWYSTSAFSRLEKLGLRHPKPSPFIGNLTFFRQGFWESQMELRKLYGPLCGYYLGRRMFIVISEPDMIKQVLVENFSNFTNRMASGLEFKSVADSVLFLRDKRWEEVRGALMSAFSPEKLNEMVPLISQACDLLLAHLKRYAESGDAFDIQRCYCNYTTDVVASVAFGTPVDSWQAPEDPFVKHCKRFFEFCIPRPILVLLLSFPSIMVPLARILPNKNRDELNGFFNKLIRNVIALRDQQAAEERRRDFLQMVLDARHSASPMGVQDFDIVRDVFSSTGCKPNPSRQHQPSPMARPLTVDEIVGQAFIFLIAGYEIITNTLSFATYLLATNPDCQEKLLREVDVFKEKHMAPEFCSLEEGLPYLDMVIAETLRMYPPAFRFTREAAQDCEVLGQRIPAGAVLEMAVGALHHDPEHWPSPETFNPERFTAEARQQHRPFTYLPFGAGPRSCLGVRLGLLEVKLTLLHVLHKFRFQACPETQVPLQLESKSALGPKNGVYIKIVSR

For `CCCCCNC(=O)c1coc([C@H]2[C@@H](Cc3ccccc3CCC(=O)O)[C@@H]3CC[C@H]2O3)n1` [IFETROBAN], the bioavailability [1] was 20%, the Activity (Bos taurus) was “inactive” and the Activity (Homo sapiens) was “inactive”. For the same compound, the Dose (Monkey) was 3 mg/kg, the T50 (Mus musculus) was 14 h and the Kb (Rattus norvegicus) was 0.56 nM. The Activity [2] was “inactive”.
